# Test results published in patent publication US7557133B2, “Caspase inhibitors containing isoxazoline ring” (LG Life Sciences Ltd., priority 2003, dated 2009).
# What was measured:
# [1] = tested on: Jurkat cell (ATCC TIB-152); assay: Jurkat cell apoptosis by Fas antibody, WST-1 method; format: cell-based; conditions: apoptosis using Fas antibody, WST-1; for IC50: Homo sapiens, Jurkat
# Description: The […] inhibitory activity of the inhibitors was determined by subjecting Jurkat cell (ATCC TIB-152) to apoptosis using Fas antibody (Upstate Biotech 05-201) and by detecting the color change according to the WST-1 method known in Francoeur A. M. and Assalian A. (1996) Biochemica 3, 19-25 to observe the amount of alive Jurkat cells when the cells were treated by the inhibitor. Spectra MAX 340 Spectrometer of Molecular Device Co. was used at the absorbance wavelength of 440 nm.
# caspase-8 = biological target: T1, caspase-8 (Homo sapiens, UniProt Q14790); assay: Caspase-8 inhibitory effect (fluorescent substrate AcDEVD-AFC); format: biochemical; conditions: 25° C., 50 μM AcDEVD-AFC, 2.1 nM caspase-8; for kinact/KI: pH 7.5, read-out: Caspase-8 Kobs/[I] (converted)
# T1 construct: p10 and p20 subunits (Thornberry, N. A. et al, Nature, 1992, 356, 768) were expressed in E. coli; made in house; host or cells: E. coli
# T1 sequence (Q14790 217-374 limits assumed, species assumed): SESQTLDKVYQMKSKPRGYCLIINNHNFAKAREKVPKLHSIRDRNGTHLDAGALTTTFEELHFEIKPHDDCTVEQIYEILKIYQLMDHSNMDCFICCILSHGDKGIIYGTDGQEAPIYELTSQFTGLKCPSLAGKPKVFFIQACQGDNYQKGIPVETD
# T1 sequence (Q14790 385-479 limits assumed, species assumed): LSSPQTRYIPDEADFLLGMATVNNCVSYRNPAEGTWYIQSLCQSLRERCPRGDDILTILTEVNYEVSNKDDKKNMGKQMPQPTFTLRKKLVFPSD
# Description: Caspase-1 and caspase-8 known as cysteine proteases in the form of α2β2 were expressed, purified, and activated by modifying a method known in Thornberry, N. A. et al, Nature, 1992, 356, 768. Thornberry, N. A. Methods in Enzymology, 1994, 244, 615. Walker, N. P. C. et al. Cell, 1994, 78, 343, and caspase-9 was also purified by a similar method, and the inhibitory activity against them was tested. Briefly describing, p10 and p20 subunits (Thornberry, N. A. et al, Nature, 1992, 356, 768) were expressed in E. coli and purified by nickel column and anionic exchange chromatography to give caspase-1, caspase-8 and caspase-9. The fluorescent substrate AcYVAD-AFC for thus obtained caspase-1, AcDEVD-AFC for caspase-8, and AcLEHD-AFC for caspase-9 were used for determining specific activity of the synthesized inhibitors. The enzyme reaction was carried out at 25° C. with various concentrations of the inhibitors in a buffer solution containing 50 mM HEPES(pH 7.50), 10% (w/v) sucrose, 0.1% (w/v) CHAPS, 100 mM NaCl, 1 mM EDTA, and 10 mM DTT in the presence of 50 μM AcYVAD-AFC for 10 nM caspase-1, 50 μM AcDEVD-AFC for 2.1 nM caspase-8, and 150 μM AcLEHD-AFC for 200 nM caspase-9. The inhibitory constants Ki and Kobs of the inhibitors were determined by measuring the reaction velocity with the time lapse using a fluorescent spectrometer and by obtaining the initial rate constant. Ki was calculated from the Lineweaver Burk Plot, and Kobs from the following Equation 1. Kobs=−ln(1−At/Aoo)/t Equation 1
# At means cleavate rate (%) at time t, and
# Aoo means the maximum cleavage rate (%).
# Spectra MAX GeminiXS Fluorescent Spectrometer of Molecular Device Co. was used at the excitation wavelength of 405 nm and the emission wavelength of […].
IC50 [1] [µM],kinact/KI (caspase-8) [M⁻¹ s⁻¹],Jurkat cell IC50 [1],Caspase-8 Kobs/[I] (caspase-8),SMILES
2.27,733,,,"CCC1(C(=O)NC(CC(=O)O)C(=O)CF)CC(c2ccccn2)=NO1 (stereo not shown) [Iaa7, 3-({[5-Ethyl-3-(2-pyridinyl)-4,5-dihydro-5-isoxazolyl]carbonyl}amino)-5-fluoro-4-oxopentanoic Acid]"
1.14,3000,,,"CC(C)C1(C(=O)NC(CC(=O)O)C(=O)CF)CC(c2cc(-c3ccccc3)ccn2)=NO1 (stereo not shown) [Iaa17, 5-Fluoro-3-({[5-isopropyl-3-(4-phenyl-2-pyridinyl)-4,5-dihydro-5-isoxazolyl]carbonyl}amino)-4-oxopentanoic Acid]"
0.79,6830,,,"CC(C)[C@@]1(C(=O)NC(CC(=O)O)C(=O)CF)CC(c2cc(C3CCCC3)ccn2)=NO1 (stereo partly drawn) [Iaa14, 3-({[(5R)-3-(4-cyclopentyl-2-pyridinyl)-5-isopropyl-4,5-dihydro-5-isoxazolyl]carbonyl}amino)-5-fluoro-4-oxopentanoic Acid]"
1.9,18300,,,"CC[C@]1(C(=O)NC(CC(=O)O)C(=O)CF)CC(c2cc3ccccc3cn2)=NO1 (stereo partly drawn) [Iww, 3-({[(5R)-5-ethyl-3-(3-isoquinolinyl)-4,5-dihydro-5-isoxazolyl]carbonyl}amino)-5-fluoro-4-oxopentanoic Acid]"
0.56,5330,,,"CCC1(C(=O)NC(CC(=O)O)C(=O)CF)CC(c2cccc(C(C)(C)C)c2)=NO1 (stereo not shown) [Iaa2, 3-[({3-[3-(tert-Butyl)phenyl]-5-ethyl-4,5-dihydro-5-isoxazolyl}carbonyl)amino]-5-fluoro-4-oxopentanoic acid]"
0.98,4830,,,"CC[C@@]1(C(=O)NC(CC(=O)O)C(=O)CF)CC(c2cccc3ccccc23)=NO1 (stereo partly drawn) [Iuu, 3-({[(5S)-5-ethyl-3-(1-naphthyl)-4,5-dihydro-5-isoxazolyl]carbonyl}amino)-5-fluoro-4-oxopentanoic acid]"
50,333,,,"CCC1(C(=O)N[C@@H](CC(=O)O)C(=O)COC(=O)c2c(Cl)cccc2Cl)CC(CCc2cccc3ccccc23)=NO1 (stereo partly drawn) [Ioo, (3S)-5-[(2,6-dichlorobenzoyl)oxy]-3-[({5-ethyl-3-[2-(1-naphthyl)ethyl]-4,5-dihydro-5-isoxazolyl}carbonyl)amino]-4-oxopentanoic acid]"
1.25,7000,,,"CC(C)[C@@]1(C(=O)NC(CC(=O)O)C(=O)CF)CC(c2ccc3ccccc3n2)=NO1 (stereo partly drawn) [Izz, 5-Fluoro-3-({[(5R)-5-isopropyl-3-(2-quinolinyl)-4,5-dihydro-5-isoxazolyl]carbonyl}amino)-4-oxopentanoic Acid]"
31.2,5170,,,"CCC1(C(=O)NC(CC(=O)O)C(=O)CF)CC(c2cnc3ccccc3c2)=NO1 (stereo not shown) [Iyy, 3-({[5-ethyl-3-(3-quinolinyl)-4,5-dihydro-5-isoxazolyl]carbonyl}amino)-5-fluoro-4-oxopentanoic acid]"
,267,No Activity,,"CC(C)[C@@]1(C(=O)N[C@@H](CC(=O)O)C(=O)COc2cc(C(F)(F)F)nn2-c2ccccc2)CC(c2nccc3ccccc23)=NO1 [Iaa19, (3S)-3-({[(5R)-5-isopropyl-3-(1-isoquinolinyl)-4,5-dihydro-5-isoxazolyl]carbonyl}amino)-4-oxo-5-{[1-phenyl-3-(trifluoromethyl)-1H-pyrazol-5-yl]oxy}pentanoic acid]"
0.7,7500,,,"CCC1(C(=O)NC(CC(=O)O)C(=O)CF)CC(c2cc(C(C)(C)C)ccn2)=NO1 (stereo not shown) [Iaa8, 3-[({3-[4-(tert-Butyl)-2-pyridinyl]-5-ethyl-4,5-dihydro-5-isoxazolyl}carbonyl)amino]-5-fluoro-4-oxopentanoic Acid]"
0.16,7170,,,"CCC[C@@]1(C(=O)NC(CC(=O)O)C(=O)CF)CC(c2nccc3ccccc23)=NO1 (stereo partly drawn) [Itt, 5-Fluoro-3-({[(5S)-3-(1-isoquinolinyl)-5-propyl-4,5-dihydro-5-isoxazolyl]carbonyl}amino)-4-oxopentanoic acid]"
1.2,8330,,,"CCC1(C(=O)N[C@@H](CC(=O)O)C(=O)COc2c(F)c(F)cc(F)c2F)CC(c2nccc3ccccc23)=NO1 (stereo partly drawn) [Iff, (3S)-3-({[5-ethyl-3-(1-isoquinolinyl)-4,5-dihydro-5-isoxazolyl]carbonyl}amino)-4-oxo-5-(2,3,5,6-tetrafluorophenoxy)pentanoic acid]"
1.02,2500,,,"CCC1(C(=O)NC(CC(=O)O)C(=O)CF)CC(c2cc(CC(C)C)ccn2)=NO1 (stereo not shown) [Iaa10, 3-({[5-Ethyl-3-(4-isobutyl-2-pyridinyl)-4,5-dihydro-5-isoxazolyl]carbonyl}amino)-5-fluoro-4-oxopentanoic acid]"
31,1070,,,"CCC1(C(=O)NC(CC(=O)O)C(=O)CF)CC(c2cc(C(C)=O)ccn2)=NO1 (stereo not shown) [Iaa11, 3-({[3-(4-Acetyl-2-pyridinyl)-5-ethyl-4,5-dihydro-5-isoxazolyl]carbonyl}amino)-5-fluoro-4-oxopentanoic acid]"
,483,No Activity,,"CC(C)[C@@]1(C(=O)N[C@@H](CC(=O)O)C(=O)COc2ccccn2)CC(c2nccc3ccccc23)=NO1 [Iaa23, (3S)-3-({[(5R)-5-isopropyl-3-(1-isoquinolinyl)-4,5-dihydro-5-isoxazolyl]carbonyl}amino)-4-oxo-5-(2-pyridinyloxy)pentanoic Acid]"
0.15,25000,,,"CC[C@@]1(C(=O)NC(CC(=O)O)C(=O)CF)CC(c2ccc3ccccc3n2)=NO1 (stereo partly drawn) [Ivv, 3-({[(5S)-5-ethyl-3-(2-quinolinyl)-4,5-dihydro-5-isoxazolyl]carbonyl}amino)-5-fluoro-4-oxopentanoic acid]"
2.45,3330,,,"CC(C)C1(C(=O)NC(CC(=O)O)C(=O)CF)CC(c2cccc(-c3ccccc3)c2)=NO1 (stereo not shown) [Iaa6, 3-{[(3-[1,1′-biphenyl]-3-yl-5-isopropyl-4,5-dihydro-5-isoxazolyl)carbonyl]amino}-5-fluoro-4-oxopentanoic acid]"
,517,No Activity,,"CCC1(C(=O)N[C@@H](CC(=O)O)C(=O)COc2cccc[n+]2C)CC(c2ccccc2C(C)C)=NO1.O=S(=O)([O-])C(F)(F)F (stereo partly drawn) [Iaa26, 2-{[(3S)-4-carboxy-3-({[5-ethyl-3-(2-isopropylphenyl)-4,5-dihydro-5-isoxazolyl]carbonyl}amino)-2-oxobutyl]oxy}-1-methylpyridinium trifluoromethanesulfonate]"
0.3,5000,,,"CC(C)[C@@]1(C(=O)NC(CC(=O)O)C(=O)CF)CC(c2cccc(C(C)(C)C)c2)=NO1 (stereo partly drawn) [Iaa5, 3-[({(5R)-3-[3-(tert-butyl)phenyl]-5-isopropyl-4,5-dihydro-5-isoxazolyl}carbonyl)amino]-5-fluoro-4-oxopentanoic acid]"
39.2,2170,,,"CCC1(C(=O)N[C@@H](CC(=O)O)C(=O)COc2c(F)c(F)cc(F)c2F)CC(c2c(C)c3ccccc3n2C)=NO1 (stereo partly drawn) [Ill, (3S)-3-({[3-(1,3-dimethyl-1H-indol-2-yl)-5-ethyl-4,5-dihydro-5-isoxazolyl]carbonyl}amino)-4-oxo-5-(2,3,5,6-tetrafluorophenoxy)pentanoic acid]"
,,No Activity,No Activity,"CC(C)C(=O)OCC(=O)[C@H](CC(=O)O)NC(=O)[C@]1(C(C)C)CC(c2nccc3ccccc23)=NO1 [Iaa21, (3S)-5-(isobutyryloxy)-3-({[(5R)-5-isopropyl-3-(1-isoquinolinyl)-4,5-dihydro-5-isoxazolyl]carbonyl}amino)-4-oxopentanoic acid]"
0.35,5170,,,"CCC1(C(=O)NC(CC(=O)O)C(=O)CF)CC(c2cc(C3CCCC3)ccn2)=NO1 (stereo not shown) [Iaa13, 3-({[3-(4-Cyclopentyl-2-pyridinyl)-5-ethyl-4,5-dihydro-5-isoxazolyl]carbonyl}amino)-5-fluoro-4-oxopentanoic Acid]"
